Assay: GHS categories as the set defines them, by LD50: 1 up to 5, 2 up to 50, 3 up to 300, 4 up to 2000, 5 above 2000 mg/kg
Conditions: rat; in vivo; po
Description: […]The data set underlying the modeling effort for this project was initially compiled by NICEATM and U.S. EPA’s CCTE. Briefly, LD50 data were collected from rat acute oral systemic toxicity tests, including limit tests, ranges/confidence intervals, and discrete LD50 values. The full data set included 21,200 LD50 entries for 15,688 substances. […] Data were reviewed to ensure that LD50 values with obvious errors in the extracted data such as unit conversion errors (e.g., comma and decimal separator misplacements) were either fixed or removed. After this review, 16,209 LD50 values remained. Many of the chemicals represented had multiple LD50 entries, requiring that a single representative value per Chemical Abstracts Service Registry Number (CASRN) identifier be defined to facilitate modeling efforts. Based on ATWG feedback and to define the representative LD50 as a protective value while accounting for the distribution across multiple LD50s, the median of the lowest quartile was computed using only discrete LD50 values (omitting limit test data and range and confidence interval data). A detailed summary of the data compilation is available online on the NICEATM webpage dedicated to the collaborative modeling project (NTP 2020).
[…][…] For categorical designations, limit test and range/confidence interval LD50 data were integrated wherever possible. As such, the number of chemicals with end point values/calls varies across the modeling end points (Table 3) based on whether chemicals had representative LD50 values and/or other data. If a chemical had both, the representative value was used to determine categorical calls rather than limit test data. Some data were useable only for certain end points and categories depending on the thresholds. For example, ranges that spanned multiple hazard categories were considered only for the binary (very toxic/nontoxic) end points and omitted from rendering a determination for hazard category assignment.
[…]The final data set comprising 11,992 chemicals was split into training and evaluation sets […], respectively. This process was performed semirandomly by ordering chemicals based on the five end points (categorical and continuous LD50 values) and partitioning every fourth record into the evaluation set accordingly. This approach was taken to ensure an equivalent distribution of the LD50 values and the different hazard categories between the training and the evaluation sets without supervised sampling of the chemicals based on structures (Figure 1A). The sources of the chemical structures were also kept equivalent between the two sets, with chemical structures obtained from DSSTox, being the highest quality, representing over 75% of each set (Figure 1B).

Structure (SMILES) | GHS category
CC(C)(O/N=C(\C(=O)N[C@@H]1C(=O)N2C(C(=O)[O-])=C(C[n+]3ccccc3)CS[C@H]12)c1csc(N)n1)C(=O)O | 5
C=C(C#N)C(=O)OCCOC | 5
CC(C)C(=O)c1ccc2cc(CC(=O)O)ccc2c1 | 5
COC(=O)c1c(C)nc(C)c(C(=O)O)c1-c1cc([N+](=O)[O-])ccc1F | 5
CC(=O)Nc1ccc(S(=O)(=O)Cl)cc1 | 5
CSC(C)=NOC(=O)N(C)SN(C)C(=O)Oc1ccc(Sc2ccc(OC(=O)N(C)SN(C)C(=O)ON=C(C)SC)cc2)cc1 | 4
C=CCCCCCCCCC=O | 5
CCC(CO)(CO)C(=O)O | 5
CCCCc1c(Cc2ccc(-c3ccccc3-c3nn[nH]n3)cc2)c(=O)nc2nc(C)[nH]n12 | 4
COc1c(C)c(O)c(C)c(C)c1C(=O)Oc1c(C)c(C)c(C(=O)Oc2c(C)c(C)c(C(=O)O)c(OC)c2C)c(O)c1C | 4
Cc1ccc(C(=O)OCCCl)cc1N=Nc1c(O)c(C(=O)Nc2cc(C)c(NC(=O)c3cc4ccccc4c(N=Nc4cc(C(=O)OCCCl)ccc4C)c3O)cc2C)cc2ccccc12 | 5
C[C@H]1O[C@H](OC[C@H]2O[C@H](O)[C@H](OS(=O)(=O)O)[C@@H](OS(=O)(=O)O)[C@@H]2OS(=O)(=O)O)[C@H](OS(=O)(=O)O)[C@@H](OS(=O)(=O)O)[C@@H]1O | 5
CC=CCC1=C(C)CCC1 | 5
CC(=O)OCC(C)=CCCC1(C)C2CC3C(C2)C31C (centres undefined) | 5
CCCC(=O)CC(=O)OCC | 4
CC(=O)Oc1c(I)cc(I)cc1C(=O)Nc1ccc(Cl)cc1 | 5
CC1N=C(c2ccccc2F)c2c(ccc(NC(=O)NCCO)c2Br)N(C)C1=O (centres undefined) | 5
O=C(O)c1cc(O)ccc1Nc1cccc(C(F)(F)F)c1 | 4
Cc1c(C)c2c(c(C)c1OC(=O)c1cccnc1)CC[C@@](C)(CCC[C@H](C)CCC[C@H](C)CCCC(C)C)O2 (racemic) | 5
CC(C)=CCC(C#N)(CCN(C)C)Cc1cccc2ccccc12 (centres undefined) | 4

Structure (SMILES) | GHS category
O=C1NC(=O)C(c2ccc(O)cc2)N1 (centres undefined) | 5
O=c1ccc2cccnc2n1-c1cccc(C(F)(F)F)c1 | 3
OC1(c2ccc(Cl)c(Cl)c2)c2ccccc2C2=NCCCN21 (centres undefined) | 4
CCCC/C=C/C=C\C=O | 5
NC(=O)c1ccc(NC(=O)c2ccc(N)cc2)cc1 | 5
Cc1cc(C)c(NC(=O)c2sc(N)nc2C)c(C)c1 | 4
CC1=C(C(=O)O)N2C(=O)[C@@H](NC(=O)C(N)C3=CCC=CC3)[C@H]2SC1 (some centres undefined) | 5
CCOC(=O)C1=C(C)NC(C)=C(C(=O)OCCN2C(=O)c3ccccc3S2(=O)=O)C1C (centres undefined) | 5
CCCc1c(Cc2ccc(-c3ncccc3-c3nn[nH]n3)cc2)c(=O)nc2nc[nH]n12 | 4
O=C(O)c1ccccc1C(=O)O | 5
CC(=O)S[C@@H]1CC2=CC(=O)CC[C@]2(C)[C@H]2CC[C@@]3(C)[C@@H](CC[C@@]34CCC(=O)O4)[C@H]12 | 4
O=C(O)c1c(Cl)c(Cl)c(C(=O)O)c(Cl)c1Cl | 5
CCOC(=O)C(Cl)(Cl)Cl | 5
C#CCON=CC1=CCCN(C)C1 | 3
C/C=C(\C)C(=O)O | 5
NCCS(=O)(=O)O | 5
Cc1ccc(Nc2nc(Nc3ccc(C)cc3)c(N=Nc3ccccc3C(F)(F)F)c(C)c2C#N)cc1 | 5
O=C1CCCCCN1C(=O)c1cccc(C(=O)N2CCCCCC2=O)c1 | 5
CC(C)=CCN(CC=C(C)C)CCC(C#N)(c1ccc2ccccc2c1)C(C)C (centres undefined) | 4

Source: the CATMoS acute toxicity set (Mansouri et al. 2021)
